Source: patent publication US6828327B2, “Macroheterocylic compounds useful as kinase inhibitors” (Ortho-McNeil Pharmaceutical, Inc., priority 2000, dated 2004)
pIC50: −log10 of the molar value.

How the values were obtained:
Format in all cases: biochemical
Casein Kinase 1 = target: T1, Casein Kinase 1 (Rattus norvegicus, UniProt Q06486); assay: Biotinylated Peptide Substrate Assay, Casein Kinase 1
T1 construct: a protein truncation at amino acid 318 of the C-terminal portion of the rat CK1 delta isoform; purchased New England Biolabs, Beverly, Mass; 6030; host or cells: E. coli
T1 sequence (Q06486 1-317 limits assumed): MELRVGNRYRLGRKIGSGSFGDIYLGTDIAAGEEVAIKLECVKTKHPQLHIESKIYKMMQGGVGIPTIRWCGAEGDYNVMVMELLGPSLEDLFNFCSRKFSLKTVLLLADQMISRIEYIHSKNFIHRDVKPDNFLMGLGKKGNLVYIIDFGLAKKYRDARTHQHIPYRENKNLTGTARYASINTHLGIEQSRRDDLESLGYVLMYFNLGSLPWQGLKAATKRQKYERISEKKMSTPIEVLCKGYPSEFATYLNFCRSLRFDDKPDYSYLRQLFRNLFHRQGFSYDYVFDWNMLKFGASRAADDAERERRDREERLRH
Experimental: (§1) Assays to test inhibition of a compound for other kinases were preformed using methods that measure the amount of phosphorylation of a biotinylated peptide substrate. Biotinylated peptide substrates were selected from the literature as appropriate for the enzyme being evaluated.
(§2) A kinase reaction mix was prepared in 50 mM Tris-HCl pH=8, 10 mM MgCl2, 0.1 mM Na3VO4, 1 mM DTT, 10 μM ATP, 0.25-1 μM biotinylated peptide substrate, 0.2-0.8 μCuries per well ^33P-γ-ATP (2000-3000 Ci/mmol). Assay conditions vary slightly for each protein kinase, for example, insulin receptor kinase requires 10 mM MnCl2 for activity and Calmodulin-dependent protein kinase requires calmodulin and 10 mM CaCl2. The reaction mixture was dispensed into the wells of a streptavidin coated Flashplate and 1 μL drug stock in 100% DMSO was added to a 100 μL reaction volume resulting in a final concentration of 1% DMSO in the reaction. Enzyme was diluted in 50 mM Tris-HCl pH=8.0, 0.1% BSA and added to each well. The reaction was incubated for one hour at 30° C. in the presence of compound. After one hour the reaction mix was aspirated from the plate and the plate was washed with PBS containing 100 mM EDTA. The plate was read on a scintillation counter to determine ^33P-γ-ATP incorporated into the immobilized peptide. Test compounds were assayed in duplicate at 8 concentrations (100 uM, 10 uM, 1 uM, 100 nM, 10 nM, 1 nM, 100 pM, 10 pM). A maximum and minimum signal for the assay was determined on each plate.
(§3) The IC50 was calculated from the dose response curve of the percent inhibition of the maximum signal in the assay according to the formula:
(§4) % Inhibition=((MS−BS)/(TCS−BS))×100%
(§5) where MS=Maximum Signal, BS=Background Signal, TCS=Test Compound Signal. The percent inhibition was graphed against the log concentration of the test compound. Known inhibitor compounds as appropriate references for the kinase being assayed were also included on each plate.
(§6) VEGF-R (vascular endothelial growth factor receptor-2) is a fusion protein containing a polyhistidine tag at the N-terminus followed by amino acids 786-1343 of the rat VEGF-R2 kinase domain (GenBank Accession #U93306). Protein Kinase A is the catalytic subunit of cAMP dependent protein kinase-A purified from bovine heart (Upstate Biotech, Lake Placid, N.Y., Cat#14-114). CDK1 (cyclin dependent kinase 1) is isolated from insect cells expressing both the human CDK1 catalytic subunit and its positive regulatory subunit cyclin B (New England Biolabs, Beverly, Mass., Cat. #6020). Casein Kinase-1 is a protein truncation at amino acid 318 of the C-terminal portion of the rat CK1 delta isoform produced in E.coli (New England Biolabs, Beverly, Mass., Cat. #6030). […]

EGF-R = target: T2, EGF-R (Homo sapiens, UniProt P00533); assay: Biotinylated Peptide Substrate Assay, EGF-R; settings: read-out: EGF-R Kinase Assay (IC50 uM)
T2 construct: is purified from human A431 cell membranes; purchased Sigma, St. Louis, Mo; E3641; host or cells: human A431 cell membranes (endogenous receptor)
T2 sequence (P00533 25-1210): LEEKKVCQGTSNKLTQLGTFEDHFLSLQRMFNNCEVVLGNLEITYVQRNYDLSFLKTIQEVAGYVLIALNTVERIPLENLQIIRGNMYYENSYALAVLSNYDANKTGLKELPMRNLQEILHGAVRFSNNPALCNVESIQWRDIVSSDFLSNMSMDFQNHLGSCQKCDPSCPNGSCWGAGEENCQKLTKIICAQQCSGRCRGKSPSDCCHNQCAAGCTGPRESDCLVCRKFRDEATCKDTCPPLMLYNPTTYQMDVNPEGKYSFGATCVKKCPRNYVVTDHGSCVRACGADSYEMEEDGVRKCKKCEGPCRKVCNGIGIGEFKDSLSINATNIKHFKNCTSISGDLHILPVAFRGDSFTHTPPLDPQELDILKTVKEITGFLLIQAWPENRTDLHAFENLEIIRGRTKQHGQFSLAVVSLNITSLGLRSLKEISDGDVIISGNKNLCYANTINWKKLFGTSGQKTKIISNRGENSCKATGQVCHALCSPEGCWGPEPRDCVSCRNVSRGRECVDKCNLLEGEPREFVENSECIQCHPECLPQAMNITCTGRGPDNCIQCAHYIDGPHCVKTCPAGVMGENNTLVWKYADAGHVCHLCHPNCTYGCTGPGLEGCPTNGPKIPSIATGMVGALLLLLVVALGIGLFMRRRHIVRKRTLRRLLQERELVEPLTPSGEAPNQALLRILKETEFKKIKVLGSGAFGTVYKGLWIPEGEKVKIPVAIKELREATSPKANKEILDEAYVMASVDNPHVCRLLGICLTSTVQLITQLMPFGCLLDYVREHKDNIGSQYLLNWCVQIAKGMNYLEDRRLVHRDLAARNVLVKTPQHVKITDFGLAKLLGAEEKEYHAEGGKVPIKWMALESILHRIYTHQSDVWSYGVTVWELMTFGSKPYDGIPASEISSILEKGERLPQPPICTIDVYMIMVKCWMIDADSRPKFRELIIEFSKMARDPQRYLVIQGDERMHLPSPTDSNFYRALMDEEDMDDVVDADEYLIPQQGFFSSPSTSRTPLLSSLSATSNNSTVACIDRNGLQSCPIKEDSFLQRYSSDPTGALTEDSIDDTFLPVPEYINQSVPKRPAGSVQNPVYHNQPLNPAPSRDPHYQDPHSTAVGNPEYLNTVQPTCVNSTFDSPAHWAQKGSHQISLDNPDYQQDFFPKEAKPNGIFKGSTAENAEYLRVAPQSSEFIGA
Experimental: as §1, §2, §3, §4, §5, §6

Calmodulin Kinase 2 = target: T3, Calmodulin Kinase 2 (Rattus norvegicus, UniProt P11275); assay: Biotinylated Peptide Substrate Assay, Calmodulin Kinase 2
T3 construct: purchased New England Biolabs, Beverly, Mass; 6060; host or cells: insect cells
Experimental: as §1, §2, §3, §4, §5, §6

PKC-γ = target: T4, PKC-γ (Homo sapiens, UniProt P05129); assay: Protein Kinase C Scintillation Proximity Assay (SPA), PKC-γ; settings: inhibition value, recombinant human isozyme, 1 μM ATP
T4 construct: purchased PanVera, Madison Wis; host or cells: baculovirus expression vector
Experimental: The binding activity of a compound for Protein Kinase C (PKC) was assessed using a homogeneous Scintillation Proximity Assay according to the procedure below.
The different human PKC isozymes (were obtained from PanVera, Madison Wis. and had been prepared as recombinant enzymes produced from a baculovirus expression vector) were added to a reaction mixture containing a test compound, 20 mM HEPES (pH 7.4), 100 μM CaCl2, 10 mM MgCl2, 100 μg/mL phosphatidylserine, 20 μg/mL diacylglycerol, 1 μM ATP, 0.8 μCi (^33P)ATP, and 5 μg/mL biotinylated substrate peptide (Jing Zhao et al., J. Bio. Chem., 1998, 273, 23072). The reaction was incubated for 15 min at 30° C. Reactions were terminated by the addition of streptavidin-coated SPA beads (Amersham) in a solution containing 1 mM EGTA, 10 mM EDTA and 100 μM ATP. Beads were allowed to settle overnight and the plates read in a Wallac MICROBETA scintillation counter (PerkinElmer Life sciences, Wellesley, Mass.).
Values for inhibition of various PKC isozymes and GSK 3-β by certain compounds of the invention tested in the PKC SPA and GSK 3-β assays are shown in Table 1.

VEGF-R = target: T5, VEGF-R (Rattus norvegicus, UniProt O08775); assay: Biotinylated Peptide Substrate Assay, VEGF-R; settings: read-out: VEGF-R Kinase Assay (IC50 uM)
T5 construct: polyhistidine (N)
T5 sequence (O08775 786-1343): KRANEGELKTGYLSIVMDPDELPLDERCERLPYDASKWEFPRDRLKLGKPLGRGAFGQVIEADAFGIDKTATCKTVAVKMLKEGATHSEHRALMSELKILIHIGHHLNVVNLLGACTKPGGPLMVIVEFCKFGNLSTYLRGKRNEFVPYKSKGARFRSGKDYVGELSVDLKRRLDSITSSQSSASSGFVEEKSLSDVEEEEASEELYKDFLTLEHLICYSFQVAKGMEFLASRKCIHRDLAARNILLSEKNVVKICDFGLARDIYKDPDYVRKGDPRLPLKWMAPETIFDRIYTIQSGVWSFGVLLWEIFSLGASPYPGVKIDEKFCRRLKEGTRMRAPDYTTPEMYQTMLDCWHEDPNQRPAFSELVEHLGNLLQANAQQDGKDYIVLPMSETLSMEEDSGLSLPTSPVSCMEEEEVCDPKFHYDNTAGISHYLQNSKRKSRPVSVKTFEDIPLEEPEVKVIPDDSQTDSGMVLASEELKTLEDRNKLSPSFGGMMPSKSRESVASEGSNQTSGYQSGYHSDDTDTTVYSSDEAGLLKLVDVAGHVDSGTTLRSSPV
Experimental: as §1, §2, §3, §4, §5, §6

IC50 (Casein Kinase 1)	IC50 (EGF-R)	IC50 (Calmodulin Kinase 2)	pIC50 (PKC-γ)	IC50 (VEGF-R)	Structure (SMILES)
> 10 µM	> 10 µM	> 10 µM	4.41	> 10 µM	O=C1NC(=O)C2=C1c1cn(c3ncccc13)CCOCCOCCOCCn1cc2c2cccnc21 [Cpd 1]
> 10 µM	> 10 µM	> 10 µM	< 4.00	> 10 µM	O=C1NC(=O)C2=C1c1cn(c3ncccc13)CCOCCOCCOCCOCCn1cc2c2cccnc21 [Cpd 2]
> 10 µM	> 10 µM	> 10 µM	5.11	1.2 µM	O=C1NC(=O)C2=C1c1cn(c3ccccc13)CCOCCOCCn1cc2c2cccnc21 [Cpd 10]
> 10 µM	> 10 µM	> 10 µM	5.54	0.889 µM	O=C1NC(=O)C2=C1c1cn(c3ccccc13)CCOCCOCCOCCn1cc2c2cccnc21 [Cpd 11]
